Columns and labels:
Type I Collagen = Type I Collagen Assay (ELISA, fibroblast culture medium); assay type: cell-based, human; settings: for Type I Collagen C-Peptide: 48 hours, untreated 1255 ± 83
Method: In the study, human neonatal fibroblasts were seeded into the individual wells of a 48-well plate in 0.25 ml of Fibroblasts Growth Media (FGM) and incubated overnight at 37±2° C. and a 5±1% CO2 atmosphere. On the following day the media was removed via aspiration to eliminate non-adherent cells and replaced with 0.5 ml of fresh FGM. The cells were grown until confluent, with a media change every 48 to 72 hours. Upon reaching confluency the cells were treated for 24 hours with Dulbecco's Modified Eagle's medium (DMED) supplemented with 1.5% Fetal Bovine Serum (FBS) to wash out any effects from the growth factors included in the normal culture media. After this 24-hour wash out period the cells were treated with the test materials at the specified concentrations dissolved in FGM with 1.5% FBS. Sodium ascorbate (10 ug/ml) was used as a positive control. Untreated cells (negative controls) only received DMEM with […], The cells were incubated for 48 hours and at the end of the incubation period, cell culture medium was collected and either stored frozen (−75 C) or assayed immediately. Materials were tested in triplicate.
A series of type I collagen peptide standards was prepared ranging from 0 ng/ml to 640 ng/ml. An ELISA microplate was prepared by removing any unneeded strips from the plate frame followed by the addition of 100 μl of peroxidase labelled anti-procollagen type I-C peptide antibody to each well used in the assay. A 20 μl sample of each of the collected tissue culture media or a standard was then added to appropriate wells and the microplate covered and allowed to incubate for 3±0.25 hours at 37 C. Following incubation, the wells were aspirated and washed three times with 400 μl of wash buffer. After the last wash was remove 100 μl of peroxidase substrate solution (hydrogen peroxide+tetramethylbenzidine as a chromogen) was added to each well and the plate incubated for 15±4 minutes at room temperature. Following this incubation, 100 μl of stop solution (1 N sulfuric acid) was added to each well and the plate read using a microplate reader at 450 nm.
(§1) To quantify the amount of each substance present, a standard curve was generated using known concentrations of each substance. A regression analysis was performed to establish the line that best fit those data points. Absorbance values for the test materials and untreated samples were used to estimate the amount of each substance present in each sample. Treatment means were compared using ANOVA, with an […] per treatment. Statistical significance was set at p≤0.05.

Prolidase (PEPD) = assay: Prolidase Assay (ELISA); assay type: cell-based; settings: for Prolidase: untreated 74 ± 3
Method: A series of standards was prepared and 50 μl aliquots of the standards and the test samples identified in Table 6 were added to wells of a prolidase ELISA plate, followed by the addition of 100 μl […] conjugated anti-prolidase antibody. The plate was then incubated at 37° C. for 1 hour, Following incubation, the ELISA plate was washed and 100 μl of substrate solution was added to each well and the well-plate incubated for 10-15 minutes at room temperature to allow the color generation reaction to occur. At the end of the color generation reaction, 50 μl of stop solution (1 N sulfuric acid) was added to each well and the plates read at 460 nm using a plate reader.
as §1

COX-2 = target: T1, COX-2 (Homo sapiens, UniProt P35354)
T1 sequence (P35354 18-604): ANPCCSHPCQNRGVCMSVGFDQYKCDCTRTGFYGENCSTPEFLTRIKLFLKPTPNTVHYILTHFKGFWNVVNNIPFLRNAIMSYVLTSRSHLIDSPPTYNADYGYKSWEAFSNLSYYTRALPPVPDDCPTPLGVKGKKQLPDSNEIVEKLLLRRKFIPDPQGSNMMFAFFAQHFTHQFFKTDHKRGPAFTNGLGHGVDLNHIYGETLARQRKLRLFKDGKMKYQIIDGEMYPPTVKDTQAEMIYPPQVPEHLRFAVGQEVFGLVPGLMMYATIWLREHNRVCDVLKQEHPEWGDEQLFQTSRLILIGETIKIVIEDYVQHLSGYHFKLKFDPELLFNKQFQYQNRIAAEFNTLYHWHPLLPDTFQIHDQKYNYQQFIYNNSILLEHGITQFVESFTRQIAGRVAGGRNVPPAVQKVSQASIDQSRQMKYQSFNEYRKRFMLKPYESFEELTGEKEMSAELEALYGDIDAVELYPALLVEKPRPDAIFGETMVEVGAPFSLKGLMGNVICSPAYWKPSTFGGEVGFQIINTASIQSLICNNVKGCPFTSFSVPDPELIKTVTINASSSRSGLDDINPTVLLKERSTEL
Method: A 0.1 gram sample of each test material was dissolved in 1 mL propanediol make a stock solution, each of which was subject to 1 to 2 serial dilutions using buffer for use in determining the IC50 Testing and analysis was performed in accordance with the protocol of the COX-2 Kt (Cayman Catalog #701080) (Cayman catalog #62160).

Telomerase = Telomerase Activity Quantification qPCR Assay in human dermal fibroblasts; assay type: cell-based; settings: three days
Method: Normal neonatal human dermal fibroblasts (HDF cat, #2310; ScienCell, Oceanside, CA) were grown to confluence in the 6 well plate format and incubated with the test substances identified in Table 3 for three days. Following incubation, the cells were lysed and telomerase activity was determined with Telomerase Activity Quantification qPCR Assay Kit from ScienCell (cat. #8928). Forget-Me-Not™ EvaGreen® qPCR Master Mix (Low ROX) (Biotium, Fremont, CA) was used for real-time quantitative PCR on C1000 Touch System with CFX384™ optical module Detection. For quantifying the level of activity, the Comparative Cq method was used, following the equation: […]
where TPS is telomere primer set, which recognizes and amplifies newly synthesized telomere sequences and Cq(TPS) is the Quantification Cycle Value obtained from the qPCR software. The relative telomerase activity difference between the experimental condition and control is expressed as 2^−ΔCq Telomerase activity was considered different if the level of expression was reasonably high (Cq≤33 cycles to detect), the difference vs. control was >2 fold and the p value, assessed with two-tailed Student test, was <0.05.

[1] = tested on: EpiDermFT (Mattek full thickness) dermal substitutes; settings: versus control
Method: The experiments were performed using EpiDermFT (Mattek full thickness) dermal substitutes. Sequencing data was generated by Azenta Life Sciences (HiSeq 2×150 bp) and analyses performed using raw FastQ files provided by Azenta.

NFκB = assay: NF-κB luminance reporter assay, TNFα activated; assay type: cell-based, Murine
Description: NFκB expression was quantified from the luminance signals released from cells treated with the test products and the control (untreated).

Structure (SMILES) | Type I Collagen C-Peptide (Type I Collagen; 10 μg/ml) [ng/mL] | Type I Collagen C-Peptide (Type I Collagen; 30 μg/ml) [ng/mL] | Prolidase (Prolidase (PEPD); 10 μg/ml) [ng/mL] | Prolidase (Prolidase (PEPD); 20 μg/ml) [ng/mL] | Prolidase (Prolidase (PEPD); 30 μg/ml) [ng/mL] | Prolidase (Prolidase (PEPD); 60 μg/ml) [ng/mL] | COX-2 IC50 (COX-2) [µg/mL] | Average Cq(TPS) (Telomerase; 50 μg/ml) | Telomerase Activity (FC vs. water) (Telomerase; 50 μg/ml) [FC] | ΔCq sample-water (Telomerase; 50 μg/ml) | expression of FABP3 [1] | expression of late differentiation marker gene FLG [1] | expression of late differentiation marker gene IVL [1] | expression of late differentiation marker gene LOR [1] | expression of late differentiation marker gene SPINK5 [1] | expression of late differentiation marker gene TGM1 [1] | further results
CCCC(=O)NCCCC[C@H](NC(=O)CCC)C(=O)[O-].CCCC(=O)NCCCC[C@H](NC(=O)CCC)C(=O)[O-].[Zn+2] [Zn di-(di-n-butyryl lysinate), Zinc di-(di-n-butyryl lysinate)] | 1328 ± 48 | 1958 ± 125 | 66 ± 4 | 104 ± 5 | 115 ± 8 | 145 ± 5 | 82.3 | 30.0 | 14.6 | 3.9 | repressed | increased expression | increased expression | increased expression | increased expression | increased expression | Type I Collagen C-Peptide (Type I Collagen; 20 μg/ml): 1541 ± 94 ng/mL; boost of Collagen I vs control (Type I Collagen; 30 μg/ml): ~50%; increase of prolidase vs control (Prolidase (PEPD); 60 μg/ml): 50%; Average Cq(TPS) (Telomerase; 10 μg/ml): 30.7; Telomerase Activity (FC vs. water) (Telomerase; 10 μg/ml): 8.9 FC; ΔCq sample-water (Telomerase; 10 μg/ml): 3.2; activity of S100 calcium binding protein P (S100P) [1]: strongly increased; activity of late cornified envelope 3D (LCE3D) [1]: strongly increased; activity of late cornified envelope 3E (LCE3E) [1]: strongly increased; activity of small protein reach repeat (SPRR28) [1]: strongly increased; expression of early differentiation marker gene DSC1 [1]: increasing the expression; expression of early differentiation marker gene KRT1 [1]: increasing the expression; expression of early differentiation marker gene KRT10 [1]: increasing the expression; IC50 in inhibiting NFκB (NFκB; C2C12 reporter cells, TNFα as activator): 70.4 µg/mL; fold more effective than Na butyrate in inhibiting NFκB (NFκB; ratio of IC50 values): about 110 fold
CCCC(=O)NCCCCC(NC(=O)CCC)C(=O)[O-].CCCC(=O)NCCCCC(NC(=O)CCC)C(=O)[O-].[Ca+2] (stereo not drawn) [Ca di-(di-n-butyryl lysinate), calcium di-(di-n-butyryl lysinate)] | – | – | – | – | – | – | 111.0 | – | – | – | repressed | increased expression | increased expression | increased expression | increased expression | increased expression | activity of late cornified envelop (LCE2D) [1]: strongly increased; activity of late cornified envelope (LCE3A) [1]: strongly increased
CCCC(=O)[O-].[Na+] [Sodium butyrate, reference compound] | 1445 ± 168 | 1262 ± 95 | 54 ± 3 | 47 ± 6 | 37 ± 5 | 33 ± 5 | – | 34.3 | 0.7 | −0.5 | – | – | – | – | – | – | Type I Collagen C-Peptide (Type I Collagen; 60 μg/ml): 1196 ± 175 ng/mL; Type I Collagen C-Peptide (Type I Collagen; 100 μg/ml): 1277 ± 216 ng/mL; Collagen I boosting activity (Type I Collagen; concentrations as high as 100 μg/ml): didn't show any; decrease of prolidase vs control (Prolidase (PEPD); 60 μg/ml): 50%; Average Cq(TPS) (Telomerase; 100 μg/ml): 33.7; Telomerase Activity (FC vs. water) (Telomerase; 100 μg/ml): 1.1 FC; ΔCq sample-water (Telomerase; 100 μg/ml): 0.1; IC50 (NFκB; Mus musculus, C2C12 reporter cells, TNFα as activator, read-out: IC50 in inhibiting NFκB): 7700 µg/mL

From patent US20260041620A1, “NOVEL AMINO ACID BASED SALTS, COMPOSITIONS AND METHODS FOR TREATING SKIN AND IMPROVING SKIN REJUVENATION AND LONGEVITY” (Sytheon Ltd, priority 2023, published 2026)
